From patent US4985449A, “N-benzoyl-N-pyridyloxy phenyl urea compounds and pesticide compositions containing them” (Ishihara Sangyo Kaisha Ltd., priority 1986, dated 1991)

Experiments:
[1] = Residual test in soil (Test Example 7-III); conditions: upland volcanic ash soil, irrigated condition; 5 ppm; 20 days; 30° C.
Procedure: Upland soil (volcanic ash soil) was screened through a sieve with a mesh size of 5 mm, and 20 g by dry weight basis of the soil was put into a 100 ml Erlenmeyer flask. Then, distilled water was introduced to simulate an irrigated condition with a water depth of 1 cm. An aluminum foil was put on the top of the flask, and the flask was left to stand still for 1 week in an incubator (dark place) at 30° C.
0.5 ml of a 200 ppm dispersion in acetone of each compound (100 μg) was added to the flask by means of a pipet (to a concentration of 5 ppm). The flask was closed and thoroughly shaked, and the soil attached to the closure was washed into the flask with a small amount of water. Then, the top of the flask was covered with an aluminum foil, and the flask was subjected to incubation in a growth cabinet (30° C., humidity: 60%, continuously lighted with a fluorescent lamp with 9,000 lux). 20 Days later, the total 20 g of the soil was subjected to analysis, and the remaining amount of the compound was measured.

[2] = tested on: Diamondback moth; experiment: Insecticidal test (C-value) against diamondback moth (Test Example 7-I); type: in vivo; conditions: Plutella xylostella, 168 h; minimum concentration at which no less than 90% of insects are killed
Text: (§1) Each formulation containing an active ingredient was dispersed in water to obtain a dispersion of each active ingredient having a concentration of 10 ppm. Leaves of cabbage were dipped in the respective dispersions for about 10 seconds, and then dried in air. A sheet of moistened filter paper was placed in a Petri dish having a diameter of 9 cm, and the dried leaves of cabbage were put on the filter paper. Larvae of diamondback moth (Plutella xylostella) in second or third instar were released on the leaves, and the Petri dishes were covered and kept in a constant temperature chamber with lightening at a temperature of 26° C. On the 7th day after release, dead insects were counted, and the mortality was calculated by the following equation: […]
(§2) In the same manner as in Test Examples 2 and 3, insecticidal tests against diamondback moth and common cutworm were conducted with respect to each compound, and the minimum concentrations at which no less than 90% of insects are killed (hereinafter referred to as C-value), were obtained.

[3] = tested on: Daphnia magna Straus; experiment: Acute Immobilisation Test against Daphnia magna Straus (Test Example 7-II); type: in vivo; conditions: first instar larvae; up to 48 hours; 23±1° C.; OECD guideline; Probit method
Procedure: An acetone solution of each compound was dispersed in water to obtain test solutions having various concentrations of the active ingredient. 250 ml of each test solution was introduced into a 430 ml glass beaker. Into each beaker, 10 first instar larvae born within 24 hours were released and kept at the solution temperature of 23±1° C. The immobilisation up to 48 hours after the release of the larvae was investigated in accordance with the OECD test guideline. The test was repeated 2-3 times in two series for each concentration. The 50% immobilisation concentration (EC50, ppb) was obtained by Probit method.

[4] = tested on: Common cutworm; experiment: Insecticidal test (C-value) against common cutworm (Test Example 7-I); type: in vivo; conditions: Spodoptera litura, 168 h; minimum concentration at which no less than 90% of insects are killed
Text: as §1
(§3) The tests were conducted in the same manner as in Test Example 2 except that larvae of common cutworm (Spodoptera litura) in second or third instar were used instead of larvae of the diamondback moth in second or third instar, and the concentration of the active ingredient was changed from 10 ppm to 800 ppm or 1 ppm.
as §2

[5] = tested on: house fly (Musca domestica); experiment: Egg hatch inhibition test by the treatment of adults of house fly (Test Example 6); type: in vivo; conditions: po, 100 μg/g in diet of adult females for 3 days, unhatched eggs assessed one day after collection, read-out: ratio of the egg hatch inhibition (REHI)
Procedure: Sugar and skim milk were mixed in a weight ratio of 1:1, and 2 g of the mixture was put into a Petri dish having a diameter of 5.5 cm. 0.5 ml of an acetone solution containing the active ingredient was added to the mixture in the Petri dish. After acetone evaporated, the treated mixture was thoroughly mixed, and the concentration of the active ingredient was adjusted to 100 μg/g. Twenty non-mating females of house fly (Musca domestica) were allowed to feed on the poisoned diet (the treated mixture) in a cage. After 3 days, the diet was changed to the untreated mixture, then 20 non-mating males were released into the cage for mating. On the 3rd day after release, a cup of the medium for rearing fly larvae was set in the cage for oviposition for 7 hours. The egg laid on the medium were collected and kept on the moistened filter paper in a Petri dish. One day later, unhatched eggs were assessed and the ratio of the egg hatch inhibition (REHI) was calculated by the following equation: [formula]

[6] = tested on: house fly (Musca domestica); experiment: Larvicidal test against larvae of house fly (Test Example 4); type: in vivo; conditions: feed or water, 240 h, 10 ppm in feed, second instar larvae, 10th day after release, emerged adults counted
Procedure: Powder feed for test animals (manufactured by Oriental Kobo Kogyo K.K.) and bran were mixed in a weight ratio of 1:1 and pulverized, and 10 g of the mixture was packed in an ice cream cup. Each of the formulations containing the active ingredients, was dispersed in water, and 10 ml of the dispersion was added to the mixture in the ice cream cup and thoroughly mixed to adjust the concentration of the active ingredient to 10 ppm. Into the ice cream cup, 20 larvae of house fly (Musca domestica) in second instar were released, and kept in a constant temperature chamber with lightening at 26° C. On the 10th day after the release, the emerged adults were counted, and the mortality was calculated in accordance with the following equation. [formula]

[7] = tested on: two-spotted spider mite (Tetranychus urticae); experiment: Miticidal test against two-spotted spider mite (Test Example 1); type: in vivo; conditions: 120 h, 5th day after treatment, larvae and nimphs on French bean, 26° C.
Text: Each formulation containing an active ingredient was dispersed in water to obtain a dispersion of each active ingredient having a concentration of 800 or 200 ppm. Each of French bean seedlings with only on primary leaf left, was transplanted to a cup having a diameter of 7 cm and a height of 4 cm. About 30 larvae and […] of two-spotted spider mite (Tetranychus urticae) were infested to the leaf of the French bean. Then, the French bean was dipped in the dispersion having the concentration of 800 ppm or 200 ppm for about 10 seconds, then dried in air and kept in a constant temperature chamber with lightening at 26° C. On the 5th day after the treatment, dead mites were counted, and the mortality was calculated by the following equation: [formula]

[8] = tested on: house mosquito (Cullex pipiens pallens); experiment: Larvicidal test against larvae of house mosquito (Test Example 5); type: in vivo; conditions: 216 h, 2.5 ppb, 9th day after release, 26° C.
Procedure: Two hundreds ml of a diluted solution containing 2.5 ppb of each active ingredient was poured into a jar and 20 larvae of house mosquito (Cullex pipiens pallens) were released into the jar. Then, the jar was kept in a constant temperature chamber with lightening at 26° C. Larvae were fed every other day with 1-2 mg of powdered feed. On the 9th day after the release, dead insects were counted, and the mortality was calculated in the same manner as in Test Example 2. The results are shown in […]

[9] = tested on: common cutworm (Spodoptera litura); experiment: Insecticidal test against common cutworm (Test Example 3); type: in vivo; conditions: 168 h, 1 ppm, second or third instar larvae, 7th day after release
Text: as §1, §3

In the case of `CN(C(=O)NC(=O)c1c(F)cccc1F)c1ccc(-c2ccc(Br)cc2)cc1` [drawing 49 (R=CH3)], the “Remaining rate in the soil” value [1] is reported as 45%, the minimal effective concentration [2] is reported as 0.02 µg/mL and the “EC50 of Daphnia magna Straus (50% immobilisation concentration)” value (“EC50 … (50% immobilisation concentration)” below) [3] is reported as 150 ppb. The minimal effective concentration [4] was 0.04 µg/mL.

Compound `CN(C(=O)NC(=O)c1c(F)cccc1F)c1cc(F)c(-c2ccc(C(F)(F)F)cc2)cc1F` [Compound No. 24] has an inhibition at 100 µg/g [5] of 100% and a mortality at 10 ppm [6] of 100%.

Compound `CN(C(=O)NC(=O)c1c(F)cccc1F)c1ccc(Oc2ccc(C(F)(F)F)cc2Cl)c(Cl)c1F` [compound 13, N-[3-chloro-4-(2-chloro-4-trifluoromethylphenoxy)-2-fluorophenyl]-N'-(2,6-difluorobenzoyl)-N-methylurea] has an inhibition at 100 µg/g [5] of 100%, a mortality at 10 ppm [6] of 100% and a mortality at 200 ppm [7] of 99%.

With `COC(=O)c1cc(N(C)C(=O)NC(=O)c2c(F)cccc2F)cc(C)c1Oc1ncc(C(F)(F)F)cc1Cl` [Compound No. 6] the mortality at 10 ppm [6] was 90%.

In the case of `O=C(NC(=O)c1c(F)cccc1F)Nc1ccc(-c2ccc(Br)cc2)cc1` [drawing 49 (R=H), reference compound], the “Remaining rate in the soil” value [1] is reported as 77%, the minimal effective concentration [2] is reported as 0.3 µg/mL and the “EC50 … (50% immobilisation concentration)” value [3] is reported as under 0.8 ppb. It also gave a minimal effective concentration [4] of 0.6 µg/mL.

With `CN(C(=O)NC(=O)c1c(F)cccc1F)c1ccc(Oc2ncc(C(F)(F)F)cc2Cl)c(F)c1F` [Compound No. 2, N-[4-(3-chloro-5-trifluoromethyl-2-pyridyloxy)-2,3-difluorophenyl]-N'-(2,6, -difluorobenzoyl)-N-methylurea] the mortality at 0.0025 ppm [8] was 90%.

In the case of `O=C(NC(=O)c1c(F)cccc1F)Nc1ccc(Oc2ccc(C(F)(F)F)cc2Cl)cc1` [drawing 48 (R=H), reference compound], the “Remaining rate in the soil” value [1] is reported as 84%, the minimal effective concentration [2] is reported as 0.08 µg/mL and the “EC50 … (50% immobilisation concentration)” value [3] is reported as under 0.4 ppb. The minimal effective concentration [4] was 0.08 µg/mL.

In the case of `CN(C(=O)NC(=O)c1c(F)cccc1F)c1ccc(-c2ccc(Br)cc2)cc1` [Compound No. 29, N-(4'-bromo-4-biphenylyl)-N'-(2,6difluorobenzoyl)-N-methylurea], the inhibition at 100 µg/g [5] is reported as 100% and the mortality at 1 ppm [9] is reported as 100%.

For `O=C(NC(=O)c1c(F)cccc1F)Nc1ccc(Oc2ccc(C(F)(F)F)cc2Cl)c(F)c1` [drawing 47 (R=H), reference compound], the “Remaining rate in the soil” value [1] was 91%, the minimal effective concentration [2] was 0.08 µg/mL and the “EC50 … (50% immobilisation concentration)” value [3] was under 0.4 ppb. The minimal effective concentration [4] was 0.04 µg/mL.

In the case of `CN(C(=O)NC(=O)c1c(F)cccc1F)c1ccc(Oc2ccc(C(F)(F)F)cc2Cl)cc1` [Compound No. 18, N-[4-(2-chloro-4-trifluoromethylphenoxy)phenyl]-N'-(2,6-difluorobenzoyl)-N-methylurea], the mortality at 200 ppm [7] is reported as 100%.

With `CN(C(=O)NC(=O)c1c(F)cccc1F)c1ccc(Oc2ncc(C(F)(F)F)cc2Cl)c(F)c1` [Compound No. 3, N-{4-[3-chloro-5-trifluoromethyl-2-pyridyloxy]-3-fluorophenyl}-N'-(2,6-difluorobenzoyl)-N-methylurea] the inhibition at 100 µg/g [5] was 88% and the mortality at 0.0025 ppm [8] was 100%.

For `CN(C(=O)NC(=O)c1c(F)cccc1F)c1ccc(Oc2ccc(C(F)(F)F)cc2Cl)c(F)c1` [drawing 47 (R=CH3)], the “Remaining rate in the soil” value [1] was 76%, the minimal effective concentration [2] was 0.08 µg/mL and the “EC50 … (50% immobilisation concentration)” value [3] was 150 ppb. It also gave a minimal effective concentration [4] of 0.04 µg/mL.

`CN(C(=O)NC(=O)c1c(F)cccc1F)c1ccc(Oc2ccc(C(F)(F)F)cc2Cl)c(Cl)c1` [compound 12, N-[3-chloro-4-(2-chloro-4-trifluoromethylphenoxy)phenyl]-N'-(2,6-difluorobenzoyl)-N-methylurea] showed an inhibition at 100 µg/g [5] of 100%, a mortality at 10 ppm [6] of 100% and a mortality at 200 ppm [7] of 100%. It also gave a mortality at 800 ppm [7] of 100%.

With `CN(C(=O)NC(=O)c1c(F)cccc1F)c1ccc(Oc2ccc(C(F)(F)F)cc2Cl)cc1` [drawing 48 (R=CH3)] the “Remaining rate in the soil” value [1] was 49%, the minimal effective concentration [2] was 0.02 µg/mL and the “EC50 … (50% immobilisation concentration)” value [3] was 50 ppb. For the same compound, the minimal effective concentration [4] was 0.02 µg/mL.

`CN(C(=O)NC(=O)c1c(F)cccc1F)c1ccc(Oc2ccc(C(F)(F)F)cc2Cl)c(F)c1` [Compound No. 4, N-{4-[2-chloro-4-trifluoromethylphenoxy]-3-fluorophenyl}-N'-(2,6-difluorobenzoyl)-N-methylurea] gave a mortality at 800 ppm [7] of 90% and a mortality at 0.0025 ppm [8] of 100%.

With `CN(C(=O)NC(=O)c1c(F)cccc1F)c1cc(Cl)c(Oc2ncc(C(F)(F)F)cc2Cl)c(Cl)c1` [Compound No. 1, N-[3,5-dichloro-4-(3-chloro-5-trifluoromethyl-2-pyridyloxy)phenyl]-N'-(2,6difluorobenzoyl)-N-methylurea] the inhibition at 100 µg/g [5] was 100% and the mortality at 0.0025 ppm [8] was 100%.
